The target of experiment [1] is T1, CD73 on U138 human neuroglioma cells (Homo sapiens, UniProt P21589).
T1 construct: U138 cells were obtained from ATCC and cultured in DMEM with 10% FBS; host or cells: U138 human neuroglioma cells
T1 sequence (P21589 27-549): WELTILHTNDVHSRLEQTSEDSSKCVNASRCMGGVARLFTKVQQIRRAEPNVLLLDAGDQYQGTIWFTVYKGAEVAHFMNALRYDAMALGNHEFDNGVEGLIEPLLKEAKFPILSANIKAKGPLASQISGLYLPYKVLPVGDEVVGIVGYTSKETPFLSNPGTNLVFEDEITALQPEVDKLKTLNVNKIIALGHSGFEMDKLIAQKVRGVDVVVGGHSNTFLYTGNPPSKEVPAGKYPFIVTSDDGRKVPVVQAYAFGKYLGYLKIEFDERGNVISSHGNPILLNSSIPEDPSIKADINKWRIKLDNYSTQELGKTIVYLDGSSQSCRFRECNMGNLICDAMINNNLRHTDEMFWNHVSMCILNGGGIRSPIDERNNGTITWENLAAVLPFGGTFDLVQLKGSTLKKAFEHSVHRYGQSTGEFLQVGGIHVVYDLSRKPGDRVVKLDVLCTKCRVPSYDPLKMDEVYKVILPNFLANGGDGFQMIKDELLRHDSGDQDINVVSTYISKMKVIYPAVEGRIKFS
The experiment is described as follows: CD73 Cell-Based Assay (inorganic phosphate from AMP, malachite green). The settings on record: AMP substrate, 2 hours at 37° C., read-out: CD73 Cell-Based assay IC50. An outline of the steps: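 U138 cells, seeded the day before at 2500 per well, were washed and given AMP substrate (200 μM in the added mixture, before dilution into the buffer) together with compound. After 2 h at 37 °C in 5% CO2, inorganic phosphate in the supernatant was measured with malachite green.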

A further experiment concerns the target T2, Human CD73 (Homo sapiens, UniProt P21589).
T2 construct: purchased R&D Systems; host or cells: CHO cells
T2 sequence (P21589 27-549): T1 sequence (P21589 27-549)
As to the kind of experiment: CD73 Enzyme Assay (EnzChek PNP/MESG kinetic readout of AMP hydrolysis). Type of experiment: biochemical. The settings on record: 0.25 nM hCD73, 25 μM AMP; read-out: CD73 Enzyme Assay IC50. An outline of the steps: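 Compounds tested as 15-point, 3-fold dilution series (300 μM to 0.0002 μM) in DMSO. Kinetic absorbance at 360 nm read every minute for 10–20 min, initial velocity taken from the linear portion.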

These results are taken from patent US12331068B2, “Compositions and methods for inhibiting CD73” (Peloton Therapeutics, Inc., priority 2018, dated 2025).

A value given as a limit tells only on which side of the number the result lay.

Usually IC50 stands for the concentration at which inhibition is half-maximal. As to `C[C@@H](Nc1c(C#N)c(Cl)nc2c1cnn2[C@@H]1O[C@H](CS(=O)(=O)CP(=O)(O)O)[C@@H](O)[C@H]1O)c1ccc(F)cc1` [Compound 191], the half-maximal inhibitory concentration (IC50) (in experiment [1]; at Human CD73) was less than 10 nM throughout.

As for `N#Cc1c(Cl)nc2c(ccn2[C@@H]2O[C@H](COCP(=O)(O)O)[C@@H](O)[C@H]2O)c1N1C[C@@H](F)[C@H](F)C1` [Compound 68], the 50% inhibitory concentration (IC50) (in experiment [1]; on Human CD73) was less than 10 nM in each case.

Regarding `C[C@H](Nc1c(C#N)c(Cl)nc2c1cnn2[C@@H]1O[C@H](CS(=O)(=O)CP(=O)(O)O)[C@@H](O)[C@H]1O)c1ccc(C#N)cc1` [Compound 185], the IC50 (in experiment [1]; on Human CD73) was less than 10 nM each time.

Take `N#Cc1c(Cl)nc2c(ccn2[C@@H]2O[C@H](COCP(=O)(O)O)[C@@H](O)[C@H]2O)c1NC1CC2(CCC2)C1` [Compound 155]: the IC50 (in experiment [1]; on Human CD73) was less than 10 nM each time.

In the case of `C[C@@H](Nc1c(C#N)c(Cl)nc2c1ncn2[C@@H]1O[C@H](COP(=O)(O)CP(=O)(O)O)[C@@H](O)[C@H]1O)c1ccc(C#N)cc1` [Compound 226], the concentration for half-maximal inhibition (IC50) (in experiment [1]; on Human CD73) was less than 10 nM throughout.

On to `N#Cc1nc2c(ccn2[C@@H]2O[C@H](COCP(=O)(O)O)[C@@H](O)[C@H]2O)c(N2C[C@@H](F)[C@@H](F)C2)c1C#N` [Compound 106], for which the half-inhibitory concentration (IC50) (in experiment [1]; at Human CD73) was less than 10 nM each time.

As to `N#Cc1c(Cl)nc2c(ccn2[C@@H]2O[C@H](COCP(=O)(O)O)[C@@H](O)[C@H]2O)c1NC1CC(F)(F)C1` [Compound 10], the 50% inhibitory concentration (IC50) (in experiment [1]; on Human CD73) was less than 10 nM each time.

Take `N#Cc1c(Cl)nc2c(cnn2[C@@H]2O[C@H](COP(=O)(O)CP(=O)(O)O)[C@@H](O)[C@H]2O)c1NC1CC(F)(F)C1` [Compound 322]: the 50% inhibitory concentration (IC50) (in experiment [1]; at Human CD73) was less than 10 nM each time.

For `N#Cc1c(Cl)nc2c(cnn2[C@@H]2O[C@H](COCP(=O)(O)O)[C@@H](O)[C@H]2O)c1N1C[C@@H](F)[C@H](F)C1` [Compound 80], the 50% inhibitory concentration (IC50) (in experiment [1]; on Human CD73) was less than 10 nM in each case.

On to `C[C@@H](Nc1c(C#N)c(Cl)nc2c1ccn2[C@@H]1O[C@H](COP(=O)(O)CP(=O)(O)O)[C@@H](O)[C@H]1O)c1ccc(F)cn1` [Compound 222, (((((2R,3S,4R,5R)-5-(6-chloro-5-cyano-4-(((R)-1-(5-fluoropyridin-2-yl)ethyl)amino)-1H-pyrrolo[2,3-b]pyridin-1-yl)-3,4-dihydroxytetrahydrofuran-2-yl)methoxy)(hydroxy)phosphoryl)methyl)phosphonic acid], for which the IC50 (in experiment [1]; at Human CD73) was less than 10 nM in each case.

As to `N#Cc1nc2c(ccn2[C@@H]2O[C@H](CS(=O)(=O)CP(=O)(O)O)[C@@H](O)[C@H]2O)c(N2CCC(F)(F)C2)c1Cl` [Compound 143], the IC50 (in experiment [1]; at Human CD73) was less than 10 nM in each case.

As to `N#Cc1nc2c(ccn2[C@@H]2O[C@H](COCP(=O)(O)O)[C@@H](O)[C@H]2O)c(N2CCC(F)(F)C2)c1Cl` [Compound 102], the IC50 (in experiment [1]; at Human CD73) was less than 10 nM each time.

Turning to `N#Cc1c(Cl)nc2c(cnn2[C@@H]2O[C@H](CS(=O)(=O)CP(=O)(O)O)[C@@H](O)[C@H]2O)c1NC1CC(F)(F)C1` [Compound 129], the IC50 (in experiment [1]; on Human CD73) was less than 10 nM in each case.

Consider `N#Cc1c(Cl)nc2c(ccn2[C@@H]2O[C@H](COP(=O)(O)CP(=O)(O)O)[C@@H](O)[C@H]2O)c1NC1CCOC1` (stereo partly drawn) [Compound 224], for which the half-maximal inhibitory concentration (IC50) (in experiment [1]; on Human CD73) was less than 10 nM throughout.

With `N#Cc1c(Cl)nc2c(cnn2[C@@H]2O[C@H](COCP(=O)(O)O)[C@@H](O)[C@H]2O)c1N1CCC(F)(F)C1` [Compound 62, ((((2R,3S,4R,5R)-5-(6-chloro-5-cyano-4-(3,3-difluoropyrrolidin-1-yl)-1H-pyrazolo[3,4-b]pyridin-1-yl)-3,4-dihydroxytetrahydrofuran-2-yl)methoxy)methyl)phosphonic acid], the 50% inhibitory concentration (IC50) (in experiment [1]; at Human CD73) was less than 10 nM in each case.
